Like-named read-outs stand apart in the source and are kept apart here.
Legend:
VEGF-R2 = molecular target: T1, VEGF-R2 (Homo sapiens, UniProt P35968, DEL940-989/E990V); test: VEGF-R2 Assay (coupled spectrophotometric FLVK-P / ELISA); type: biochemical; details: for inhibition at 1 µM: read-out: VEGF % Inhib. at 1 μM
T1 construct: VEGF-R2Δ50 contains residues 806–939 and 990–1171; made in house; host or cells: baculovirus/insect cells
From the text: VEGF-R2 Construct for Assay
This construct determines the ability of a test compound to inhibit tyrosine kinase activity. A construct (VEGF-R2Δ50) of the cytosolic domain of human vascular endothelial growth factor receptor 2 (VEGF-R2) lacking the 50 central residues of the 68 residues of the kinase insert domain was expressed in a baculovirus/insect cell system. Of the 1356 residues of full-length VEGF-R2, VEGF-R2Δ50 contains residues 806–939 and 990–1171, and also one point mutation (E990V) within the kinase insert domain relative to wild-type VEGF-R2. […] See Parast et al., Biochemistry, 37,16788–16801 (1998).
Coupled Spectrophotometric (FLVK-P) Assay
The production of ADP from ATP that accompanies phosphoryl transfer was coupled to oxidation of NADH using phosphoenolpyruvate (PEP) and a system having pyruvate kinase (PK) and lactic dehydrogenase (LDH). The oxidation of NADH was monitored by following the decrease of absorbance at 340 nm (e340=6.22 cm^1 mM^−1) using a Beckman DU 650 spectrophotometer. Assay conditions for phosphorylated VEGF-R2A50 (indicated as FLVK-P in the tables below) were the following: 1 mM PEP; 250 μM NADH; 50 units of LDH/mL; 20 units of PK/mL; 5 mM DTT; 5.1 mM poly(E4Y1); 1 mM ATP; and 25 mM MgCl2 in 200 mM Hepes, pH 7.5. Assay conditions for unphosphorylated VEGF-R2A50 (indicated as FLVK in the tables) were the following: 1 mM PEP; 250 μM NADH; 50 units of LDH/mL; 20 units of PK/mL; 5 mM DTT; 20 mM poly(E4Y1); 3 mM ATP; and 60 mM MgCl2 and 2 mM MnCl2 in 200 mM Hepes, pH 7.5. Assays were initiated with 5 to 40 nM of enzyme. Ki values were determined by measuring enzyme activity in the presence of varying concentrations of test compounds. The data were analyzed using Enzyme Kinetic and Kaleidagraph software.
Formation of phosphogastrin was monitored using biotinylated gastrin peptide (1–17) as substrate. Biotinylated phosphogastrin was immobilized using streptavidin coated 96-well microtiter plates followed by detection using anti-phosphotyrosine-antibody conjugated to horseradish peroxidase. The activity of horseradish peroxidase was monitored using 2,2′-azino-di-[3-ethylbenzathiazoline sulfonate(6)] diammonium salt (ABTS). Typical assay solutions contained: 2 μM biotinylated gastrin peptide; 5 mM DTT; 20 μM ATP; 26 mM MgCl2; and 2 mM MnCl2 in 200 mM Hepes, pH 7.5. The assay was initiated with 0.8 nM of phosphorylated VEGF-R2Δ50. Horseradish peroxidase activity was assayed using ABTS, 10 mM. The horseradish peroxidase reaction was quenched by addition of acid (H2SO4), followed by absorbance reading at 405 nm. Ki values were determined by measuring enzyme activity in the presence of varying concentrations of test compounds. The data were analyzed using Enzyme Kinetic and Kaleidagraph software.

HCT 116 cell line = test: Inhibition of Cell Growth (MTT tetrazolium salt assay); type: cell-based; details: Homo sapiens
Procedure, shortened: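 HCT 116 cells in McCoy's 5A were dosed 4 h after plating, in 0.5% (v/v) DMSO, then held 4–6 days at 37 °C, 5% CO2. MTT at 0.2 mg/mL final for 4 h; DMSO-solubilized formazan read at 540 nm. IC50 taken from the linear part of a semi-log plot versus DMSO-only controls.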

[1] = HCT 116, MTT, 50% inhibition of growth, read-out: HCT 116 IC50
[2] = HCT 116, MTT, IC90, read-out: HCT 116 IC90
[3] = HCT-116, read-out: HCT 116 IC50 (uM)
[4] = HCT-116, read-out: HCT 116 IC90 (uM)

T1 sequence (P35968 with tags, fused parts or gaps DEL940-989/E990V limits assumed): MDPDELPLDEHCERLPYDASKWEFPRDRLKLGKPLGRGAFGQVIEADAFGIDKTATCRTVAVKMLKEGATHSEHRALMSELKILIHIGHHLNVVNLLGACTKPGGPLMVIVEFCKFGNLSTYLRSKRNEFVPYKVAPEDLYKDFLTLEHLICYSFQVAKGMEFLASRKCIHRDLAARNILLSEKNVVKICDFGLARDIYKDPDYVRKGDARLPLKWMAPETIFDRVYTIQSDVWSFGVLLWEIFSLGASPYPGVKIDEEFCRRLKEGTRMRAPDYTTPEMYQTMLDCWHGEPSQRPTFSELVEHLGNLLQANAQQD

Structure (SMILES) | inhibition at 1 µM (VEGF-R2) [%] | IC50 (HCT 116 cell line; [1]) [µM] | IC90 (HCT 116 cell line; [2]) [µM] | IC50 (HCT 116 cell line; [3]) [µM] | IC90 (HCT 116 cell line; [4]) [µM] | Ki (VEGF-R2) [nM]
CCc1cncc(-c2ccc3[nH]nc(/C=C/c4ccccc4)c3c2)c1Cl [Example 46, 5-(4-Chloro-5-ethyl-pyridin-3-yl)-3-(E)-styryl-1H-indazole] | 51 |  |  |  |  | 
CS(=O)(=O)Nc1ccc2nc(-c3n[nH]c4ccc(-c5cncc6ccccc56)cc34)[nH]c2c1 [Example 70, N-[2-(5-Isoquinolin-4-yl-1H-indazol-3-yl)-3H-benzoimidazol-5-yl]-methanesulfonamide] | 45 | 0.18 | 0.44 |  |  | 
CCNCc1cncc(-c2ccc3[nH]nc(-c4nc5ccccc5[nH]4)c3c2)c1C [Example 74, {5-[3-(1H-Benzoimidazol-2-yl)-1H-indazol-5-yl]-4-methyl-pyridin-3-ylmethyl}-ethyl-amine] | 14 |  |  |  |  | 
Cc1c(CN(C)C)cncc1-c1ccc2[nH]nc(-c3nc4ccccc4[nH]3)c2c1 [Example 73, {5-[3-(1H-Benzoimidazol-2-yl)-1H-indazol-5-yl]-4-methyl-pyridin-3-ylmethyl}-dimethyl-amine] | 15 | 0.2 | 0.6 |  |  | 
CCN(CC)Cc1cccc2[nH]c(-c3n[nH]c4ccc(-c5cncc6ccccc56)cc34)nc12 [Example 36, Diethyl-[2-(5-isoquinolin-4-yl-1H-indazol-3-yl)-1H-benzoimidazol-4-ylmethyl]-amine] | 15 | 0.024 | 0.06 |  |  | 
c1ccc2[nH]c(-c3n[nH]c4ccc(-c5cncc6c5CCCN6)cc34)nc2c1 [Example 54] | 46 | 0.079 | 0.23 |  |  | 
CC(C)NCc1cccc2[nH]c(-c3n[nH]c4ccc(-c5cncc6ccccc56)cc34)nc12 [Example 38, Isopropyl-[2-(5-isoquinolin-4-yl-1H-indazol-3-yl)-1H-benzoimidazol-4-ylmethyl]-amine] | 9 |  |  | 0.029 | 0.06 | 
c1ccc2[nH]c(-c3n[nH]c4ccc(-c5cccc6[nH]ccc56)cc34)nc2c1 [Example 48, 3-(1H-Benzoimidazol-2-yl)-5-(1H-indol-4-yl)-1H-indazole] |  | 3.9 | 5 |  |  | 
Cc1c(-c2ccncc2)cncc1-c1ccc2[nH]nc(-c3nc4ccc(NS(C)(=O)=O)cc4[nH]3)c2c1 [Example 71, N-{2-[5-(4-methyl-[3,4′]bipyridinyl-5-yl)-1H-indazol-3-yl)-3H-benzoimidazol-5-yl]-methanesulfonamide] | 42 | 0.7 | 2 |  |  | 
CN(C)Cc1cccc2[nH]c(-c3n[nH]c4ccc(-c5cncc6ccccc56)cc34)nc12 [Example 31, [2-(5-Isoquinolin-4-yl-1H-indazol-3-yl)-1H-benzoimidazol-4-ylmethyl]-dimethyl-amine] | 17 |  |  |  |  | 2900
CCNCc1cccc2[nH]c(-c3n[nH]c4ccc(-c5cncc6ccccc56)cc34)nc12 [Example 37, Ethyl-[2-(5-isoquinolin-4-yl-1H-indazol-3-yl)-1H-benzoimidazol-4-ylmethyl]-amine] | 17 |  |  | 0.041 | 0.12 | 
Cc1c(-c2ccncc2)cncc1-c1ccc2[nH]nc(-c3nc4ccccc4[nH]3)c2c1 [Example 53, 5-[3-(1H-Benzoimidazol-2-yl)-1H-indazol-5-yl]-4-methyl-[3,4′]bipyridinyl] | 32 | 0.2 | 0.75 |  |  | 
Fc1ccccc1-c1ccc2[nH]nc(-c3nc4ccccc4[nH]3)c2c1 [Example 6, 3-(1H-Benzoimidazol-2-yl)-5-(2-fluorophenyl)-1H-Indazole] | 64 | 6 | 21 |  |  | 
Cc1c(-c2cccnc2)cncc1-c1ccc2[nH]nc(-c3nc4ccccc4[nH]3)c2c1 [Example 58] | 17 | 0.46 | 1.3 |  |  | 
OCc1cccc2[nH]c(-c3n[nH]c4ccc(-c5cncc6ccccc56)cc34)nc12 [Example 29, [2-(5-Isoquinolin-4-yl-1H-indazol-3-yl)-1H-benzoimidazol-4-yl]-methanol] | 6 | 0.18 | 0.8 |  |  | 
Cc1c(-c2cccc(CO)c2)cncc1-c1ccc2[nH]nc(-c3nc4ccccc4[nH]3)c2c1 [Example 69, (3-{5-[3-(1H-Benzoimidazol-2-yl)-1H-indazol-5-yl]-4-methyl-pyridin-3-yl}-phenyl)-methanol] | 38 | 0.69 | 2.1 |  |  | 
Cc1c(O)cccc1-c1ccc2[nH]nc(/C=C/c3ccccc3)c2c1 [15′, 2-Methyl-3-[3-((E)-styryl)-1H-indazol-5-yl]-phenol] |  | 1.2 | 2.5 |  |  | 
Clc1ccncc1-c1ccc2[nH]nc(-c3nc4ccccc4[nH]3)c2c1 [Example 52, 3-(1H-Benzoimidazol-2-yl)-5-(4-chloro-pyridin-3-yl)-1H-indazole] | 38 | 0.5 | 2.2 |  |  | 
CCc1c(-c2ccncc2)cncc1-c1ccc2[nH]nc(-c3nc4ccccc4[nH]3)c2c1 [Example 61, 5-[3-(1H-Benzoimidazol-2yl)-1H-indazol-5-yl]-4ethyl-[3,4′]bipyridinyl] | 18 | 0.22 | 0.5 |  |  | 
Cc1c(CO)cncc1-c1ccc2[nH]nc(-c3nc4ccccc4[nH]3)c2c1 [Example 72, {5-[3-(1H-Benzoimidazol-2-yl)-1H-indazol-5-yl]-4-methyl-pyridin-3-yl}-methanol] | 24 | 0.15 | 0.53 |  |  | 
Cc1c(/C=C/CO)cncc1-c1ccc2[nH]nc(-c3nc4ccccc4[nH]3)c2c1 [Example 59, (E)-3-{5-[3-(1H-Benzoimidazol-2-yl)-1H-indazol-5-yl]-4-methyl-pyridin-3-yl}-prop-2-en-1-ol] | 31 | 0.2 | 0.48 |  |  | 
O=C(Nc1cccc2c(-c3ccc4[nH]nc(-c5nc6ccccc6[nH]5)c4c3)cncc12)c1cccnc1 [Example 55, N-{4-[3-(1H-Benzoimidazol-2-yl)-1H-indazol-5-yl]-isoquinolin-8-yl}-nicotinamide] | 32 | 1.5 | 5 |  |  | 
Cc1c(CCCO)cncc1-c1ccc2[nH]nc(-c3nc4ccccc4[nH]3)c2c1 [Example 60, (E)-3-{5-[3-(1H-Benzoimidazol-2-yl)-1H-indazol-5-yl]-4-methyl-pyridin-3-yl}-propan-1-ol] | 26 | 0.2 | 0.5 |  |  | 
Cc1c(O)cccc1-c1ccc2[nH]nc(-c3nc4ccccc4[nH]3)c2c1 [10′, 3-[3-(1H-Benzoimidazol-2-yl)-1H-indazol-5-yl]-2-methyl-phenol] |  | 1.5 | 3.8 |  |  | 
C(=C\c1n[nH]c2ccc(-c3cncc4ccccc34)cc12)/c1ccccc1 [Example 16] | 36 | 3 | 5 |  |  | 
